{"source": "ChEMBL document CHEMBL4373702", "about": "“Intracellular Trapping of the Selective Phosphoglycerate Dehydrogenase (PHGDH) Inhibitor BI-4924 Disrupts Serine Biosynthesis” (J Med Chem, 2019)", "key": {"[1]": {"experiment": "Permeability from apical to basolateral side in human Caco2 cells", "type": "ADME, cell-based", "details": "caco-2"}, "[2]": {"experiment": "Stability in human liver microsomes relative to hepatic blood flow", "type": "ADME, Microsome", "details": "read-out: Stability"}, "[3]": {"experiment": "Protein binding in 10% fetal calf serum", "type": "ADME, cell-free, Bos taurus", "details": "cattle, read-out: PB (converted)"}, "[4]": {"experiment": "Permeability from basolateral to apical side in human Caco2 cells", "type": "ADME, cell-based", "details": "caco-2"}, "[5]": {"target": "Alcohol dehydrogenase class-3 (Homo sapiens) (UniProt P11766)", "sequence (P11766 2-374 limits assumed)": "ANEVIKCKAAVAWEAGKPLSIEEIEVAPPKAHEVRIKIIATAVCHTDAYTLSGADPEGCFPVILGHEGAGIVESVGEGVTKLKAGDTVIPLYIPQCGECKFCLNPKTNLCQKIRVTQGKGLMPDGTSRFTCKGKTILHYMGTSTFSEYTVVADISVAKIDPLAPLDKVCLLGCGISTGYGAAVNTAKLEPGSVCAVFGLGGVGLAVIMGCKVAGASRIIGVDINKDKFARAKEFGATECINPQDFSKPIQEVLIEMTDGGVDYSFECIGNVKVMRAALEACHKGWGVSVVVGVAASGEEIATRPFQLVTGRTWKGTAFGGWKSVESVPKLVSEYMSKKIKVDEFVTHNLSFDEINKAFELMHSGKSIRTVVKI", "experiment": "Binding affinity to Alcohol dehydrogenase class-3 in human MDA-MB-468 cells at 10 uM incubated for 2 hrs in presence of 12-amino-2-[4-[(1S)-1-[(4,5-dichloro-1,6-dimethyl-indole-2-carbonyl)amino]-2-hydroxy-ethyl]phenyl]sulfonyl-dodecanoic acid by quantitative chemical proteomics assay", "type": "cell-based"}, "[6]": {"target": "T1, 3-hydroxyisobutyrate dehydrogenase, mitochondrial (Homo sapiens) (UniProt P31937)", "T1 sequence (whole entry)": "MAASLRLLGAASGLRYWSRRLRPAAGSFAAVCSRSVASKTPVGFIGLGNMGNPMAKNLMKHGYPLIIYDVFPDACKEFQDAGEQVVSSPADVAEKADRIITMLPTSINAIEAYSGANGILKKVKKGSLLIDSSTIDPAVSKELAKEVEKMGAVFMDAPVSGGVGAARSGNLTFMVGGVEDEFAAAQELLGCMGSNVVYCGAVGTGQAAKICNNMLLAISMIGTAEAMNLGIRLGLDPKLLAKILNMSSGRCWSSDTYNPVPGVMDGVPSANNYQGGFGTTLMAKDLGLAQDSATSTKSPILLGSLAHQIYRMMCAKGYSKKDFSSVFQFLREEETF", "experiment": "Binding affinity to 3-hydroxyisobutyrate dehydrogenase in human MDA-MB-468 cells at 10 uM incubated for 2 hrs in presence of 12-amino-2-[4-[(1S)-1-[(4,5-dichloro-1,6-dimethyl-indole-2-carbonyl)amino]-2-hydroxy-ethyl]phenyl]sulfonyl-dodecanoic acid by quantitative chemical proteomics assay", "type": "cell-based"}, "[7]": {"experiment": "Stability in mouse liver microsomes relative to hepatic blood flow", "type": "ADME, Microsome", "details": "read-out: Stability"}, "[8]": {"experiment": "Solubility pH 6.8 buffer", "type": "physicochemical"}, "[9]": {"experiment": "Stability in rat liver microsomes relative to hepatic blood flow", "type": "ADME, Microsome", "details": "read-out: Stability"}, "[10]": {"experiment": "Efflux ratio of permeability from apical to basolateral side over basolateral to apical side in human Caco2 cells", "type": "ADME, cell-based", "details": "caco-2"}, "[11]": {"target": "T1, 3-hydroxyisobutyrate dehydrogenase, mitochondrial (Homo sapiens)", "experiment": "Binding affinity to 3-hydroxyisobutyrate dehydrogenase in human MDA-MB-468 cells at 10 uM incubated for 2 hrs in presence of 2-[4-[(1S)-1-[[6-(10-aminodecyl)-4,5-dichloro-1-methyl-indole-2-carbonyl]amino]-2-hydroxy-ethyl]phenyl]sulfonylacetic acid by quantitative chemical proteomics assay", "type": "cell-based"}, "[12]": {"target": "T2, D-3-phosphoglycerate dehydrogenase (Homo sapiens, UniProt O43175)", "T2 sequence (O43175 whole entry)": "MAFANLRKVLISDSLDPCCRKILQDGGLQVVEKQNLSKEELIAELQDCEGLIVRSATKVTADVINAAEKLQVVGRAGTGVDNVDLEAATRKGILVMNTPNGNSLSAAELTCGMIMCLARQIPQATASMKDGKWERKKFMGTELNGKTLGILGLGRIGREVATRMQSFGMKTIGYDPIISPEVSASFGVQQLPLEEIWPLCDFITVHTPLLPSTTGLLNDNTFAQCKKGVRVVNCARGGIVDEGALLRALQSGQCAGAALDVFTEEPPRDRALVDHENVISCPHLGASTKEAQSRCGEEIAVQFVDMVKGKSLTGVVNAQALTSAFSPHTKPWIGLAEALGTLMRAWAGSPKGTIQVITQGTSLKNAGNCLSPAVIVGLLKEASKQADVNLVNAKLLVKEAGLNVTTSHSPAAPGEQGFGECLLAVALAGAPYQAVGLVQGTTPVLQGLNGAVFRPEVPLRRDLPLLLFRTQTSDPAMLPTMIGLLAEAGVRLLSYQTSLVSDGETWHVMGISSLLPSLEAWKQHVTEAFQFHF", "experiment": "Inhibition of PHGDH in human MDA-MB-468 cells assessed as reduction in [13C]-serine incubated for 72 hrs using [13C]glucose as substrate by LC-MS/MS analysis", "type": "cell-based"}, "[13]": {"experiment": "Protein binding in mouse plasma", "type": "ADME, cell-free", "details": "read-out: PPB (converted)"}, "[14]": {"target": "Alcohol dehydrogenase class-3 (Homo sapiens) (UniProt P11766)", "experiment": "Binding affinity to Alcohol dehydrogenase class-3 in human MDA-MB-468 cells at 10 uM incubated for 2 hrs in presence of 2-[4-[(1S)-1-[[6-(10-aminodecyl)-4,5-dichloro-1-methyl-indole-2-carbonyl]amino]-2-hydroxy-ethyl]phenyl]sulfonylacetic acid by quantitative chemical proteomics assay", "type": "cell-based"}, "[15]": {"experiment": "Stability in mouse hepatocytes relative to hepatic blood flow", "type": "ADME, cell-based, Hepatocyte", "details": "read-out: Stability"}, "[16]": {"experiment": "Solubility pH 4.5 buffer", "type": "physicochemical"}}, "note": "pIC50: −log10 of the molar value. Active and inactive are the calls of the source. No cut-off for these calls is given here."}
{"molecule": "Cc1cc2c(cc(C(=O)N[C@H](CO)c3ccc(S(=O)(=O)CC(=O)O)cc3)n2C)c(Cl)c1Cl", "values": [{"measurement": "permeability", "setting": "[1]", "value": 0.2, "unit": "×10⁻⁶ cm/s"}, {"measurement": "hepatic extraction ratio", "setting": "[2]", "value": "< 0.24"}, {"measurement": "fraction unbound", "setting": "[3]", "value": 0.17}, {"measurement": "permeability", "setting": "[4]", "value": 0.2, "unit": "×10⁻⁶ cm/s"}, {"measurement": "Activity", "setting": "[5]", "value": "Active"}, {"measurement": "Activity", "setting": "[6]", "value": "Active"}, {"measurement": "hepatic extraction ratio", "setting": "[7]", "value": "< 0.23"}, {"measurement": "solubility", "setting": "[8]", "value": 59, "unit": "mg/mL"}, {"measurement": "hepatic extraction ratio", "setting": "[9]", "value": "< 0.24"}, {"measurement": "Ratio", "setting": "[10]", "value": 11}, {"measurement": "Activity", "setting": "[11]", "value": "Active"}, {"measurement": "pIC50", "setting": "[12]", "value": 5.66}, {"measurement": "fraction unbound", "setting": "[13]", "value": 0.004}, {"measurement": "Activity", "setting": "[14]", "value": "Active"}, {"measurement": "hepatic extraction ratio", "setting": "[15]", "value": 0.38}, {"measurement": "solubility", "setting": "[16]", "value": 64, "unit": "mg/mL"}]}
